Laboratory results from article PMC4457528, “Identification of Novel Small Molecule Inhibitors of Oncogenic RET Kinase” (PLoS ONE, 2015).
Like-named read-outs stand apart in the source and are kept apart here.

How the values were obtained:
Test in all cases: KinomeScan kinase panel, single concentration 10 µM
Type in all cases: binding
KinomeScan kinase panel [1] = target: T1, KinomeScan kinase panel (Homo sapiens, UniProt Q9BXA7); details: read-out: score (%)
T1 construct: purchased DiscoveRx (KinomeScan)
T1 sequence (Q9BXA7 1-367): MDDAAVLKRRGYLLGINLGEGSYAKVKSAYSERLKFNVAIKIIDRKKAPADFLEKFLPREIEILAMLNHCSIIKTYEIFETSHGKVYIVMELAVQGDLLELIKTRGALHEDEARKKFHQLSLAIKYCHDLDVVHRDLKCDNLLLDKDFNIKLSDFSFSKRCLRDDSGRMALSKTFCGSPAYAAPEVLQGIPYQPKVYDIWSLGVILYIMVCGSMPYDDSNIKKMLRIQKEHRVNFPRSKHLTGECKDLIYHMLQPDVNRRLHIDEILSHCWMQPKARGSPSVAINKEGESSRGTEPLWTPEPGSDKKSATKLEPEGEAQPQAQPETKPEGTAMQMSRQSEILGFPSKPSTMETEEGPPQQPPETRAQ

KinomeScan kinase panel [2] = target: T2, KinomeScan kinase panel (Homo sapiens, UniProt Q9UKI8); details: read-out: score (%)
T2 construct: purchased DiscoveRx (KinomeScan)
T2 sequence (Q9UKI8 1-766): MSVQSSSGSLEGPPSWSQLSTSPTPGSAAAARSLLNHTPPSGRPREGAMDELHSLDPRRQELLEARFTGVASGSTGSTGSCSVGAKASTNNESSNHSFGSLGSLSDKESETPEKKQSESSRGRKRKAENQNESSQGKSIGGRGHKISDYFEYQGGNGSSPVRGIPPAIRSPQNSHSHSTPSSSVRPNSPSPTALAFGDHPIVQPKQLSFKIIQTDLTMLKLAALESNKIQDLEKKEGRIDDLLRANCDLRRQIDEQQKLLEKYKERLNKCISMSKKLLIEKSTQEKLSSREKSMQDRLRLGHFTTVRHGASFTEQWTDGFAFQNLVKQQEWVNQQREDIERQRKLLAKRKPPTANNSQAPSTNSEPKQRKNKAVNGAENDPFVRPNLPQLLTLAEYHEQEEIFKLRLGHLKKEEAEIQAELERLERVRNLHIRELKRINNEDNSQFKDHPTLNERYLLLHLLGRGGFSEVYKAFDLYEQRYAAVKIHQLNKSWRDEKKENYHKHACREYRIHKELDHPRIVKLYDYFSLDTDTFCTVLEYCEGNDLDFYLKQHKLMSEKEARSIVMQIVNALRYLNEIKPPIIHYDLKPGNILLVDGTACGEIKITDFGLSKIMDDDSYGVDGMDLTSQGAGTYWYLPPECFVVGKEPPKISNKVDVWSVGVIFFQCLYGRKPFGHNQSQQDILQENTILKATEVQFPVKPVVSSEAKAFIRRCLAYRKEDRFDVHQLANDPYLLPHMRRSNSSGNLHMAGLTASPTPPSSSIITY

KinomeScan kinase panel [3] = target: T3, KinomeScan kinase panel (Homo sapiens, UniProt P35590); details: read-out: score (%)
T3 construct: purchased DiscoveRx (KinomeScan)
T3 sequence (P35590 22-1138): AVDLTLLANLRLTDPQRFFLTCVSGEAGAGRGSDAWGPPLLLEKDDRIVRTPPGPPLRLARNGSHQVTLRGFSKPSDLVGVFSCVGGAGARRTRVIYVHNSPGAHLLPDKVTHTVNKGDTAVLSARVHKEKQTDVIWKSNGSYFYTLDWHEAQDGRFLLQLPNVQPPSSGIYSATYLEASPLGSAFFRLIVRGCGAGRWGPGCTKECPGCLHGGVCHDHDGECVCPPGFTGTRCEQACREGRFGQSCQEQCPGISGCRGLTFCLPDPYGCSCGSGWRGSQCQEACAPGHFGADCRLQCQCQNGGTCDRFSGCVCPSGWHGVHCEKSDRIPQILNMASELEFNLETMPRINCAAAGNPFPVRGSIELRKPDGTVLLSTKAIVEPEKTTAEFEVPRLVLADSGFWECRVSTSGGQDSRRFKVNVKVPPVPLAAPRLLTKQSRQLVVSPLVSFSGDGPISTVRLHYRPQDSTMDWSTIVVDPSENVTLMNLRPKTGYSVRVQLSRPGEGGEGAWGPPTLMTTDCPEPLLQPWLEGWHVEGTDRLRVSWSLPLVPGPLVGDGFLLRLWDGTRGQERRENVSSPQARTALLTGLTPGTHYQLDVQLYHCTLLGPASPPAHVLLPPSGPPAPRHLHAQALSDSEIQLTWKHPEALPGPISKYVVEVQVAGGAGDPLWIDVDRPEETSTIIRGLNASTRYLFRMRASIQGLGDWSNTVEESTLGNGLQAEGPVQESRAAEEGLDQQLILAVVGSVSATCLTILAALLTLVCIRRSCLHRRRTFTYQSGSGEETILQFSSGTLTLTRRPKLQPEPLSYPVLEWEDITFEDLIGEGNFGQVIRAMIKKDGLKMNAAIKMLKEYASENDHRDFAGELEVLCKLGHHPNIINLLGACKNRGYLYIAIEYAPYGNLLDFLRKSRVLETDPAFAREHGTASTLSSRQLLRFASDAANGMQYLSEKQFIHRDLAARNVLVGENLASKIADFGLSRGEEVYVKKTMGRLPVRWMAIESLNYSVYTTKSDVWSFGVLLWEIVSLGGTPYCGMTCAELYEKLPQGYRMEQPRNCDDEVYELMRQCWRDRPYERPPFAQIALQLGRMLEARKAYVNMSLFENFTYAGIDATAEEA

KinomeScan kinase panel [4] = target: T4, KinomeScan kinase panel (Homo sapiens, UniProt P07949, M918T); details: read-out: score (%)
T4 construct: purchased DiscoveRx (KinomeScan)

KinomeScan kinase panel [5] = target: T5, KinomeScan kinase panel (Homo sapiens, UniProt P08069); details: IGF1R, 10 µM; read-out: score (%)
T5 construct: purchased DiscoveRx (KinomeScan)

KinomeScan kinase panel [6] = target: T6, KinomeScan kinase panel (Homo sapiens, UniProt O96017); details: CHEK2, 10 µM; read-out: score (%)
T6 construct: purchased DiscoveRx (KinomeScan)
T6 sequence (O96017 whole entry): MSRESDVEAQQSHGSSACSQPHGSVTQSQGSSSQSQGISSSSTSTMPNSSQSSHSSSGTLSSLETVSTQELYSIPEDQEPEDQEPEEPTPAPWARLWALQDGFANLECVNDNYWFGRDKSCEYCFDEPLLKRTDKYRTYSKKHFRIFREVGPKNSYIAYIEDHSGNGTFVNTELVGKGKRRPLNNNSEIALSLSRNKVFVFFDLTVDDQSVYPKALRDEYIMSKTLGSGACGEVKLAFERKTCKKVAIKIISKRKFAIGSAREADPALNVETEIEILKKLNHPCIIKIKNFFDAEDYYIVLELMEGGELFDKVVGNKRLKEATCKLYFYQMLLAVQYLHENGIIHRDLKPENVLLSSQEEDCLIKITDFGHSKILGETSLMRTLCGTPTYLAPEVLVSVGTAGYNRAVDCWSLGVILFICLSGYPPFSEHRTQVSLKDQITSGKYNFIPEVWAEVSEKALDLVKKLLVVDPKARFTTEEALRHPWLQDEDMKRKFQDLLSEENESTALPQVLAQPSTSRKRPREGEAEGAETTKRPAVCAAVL

KinomeScan kinase panel [7] = target: T7, KinomeScan kinase panel (Homo sapiens, UniProt Q15349); details: 10 µM, read-out: score (%)
T7 construct: purchased DiscoveRx (KinomeScan)
T7 sequence (Q15349 whole entry): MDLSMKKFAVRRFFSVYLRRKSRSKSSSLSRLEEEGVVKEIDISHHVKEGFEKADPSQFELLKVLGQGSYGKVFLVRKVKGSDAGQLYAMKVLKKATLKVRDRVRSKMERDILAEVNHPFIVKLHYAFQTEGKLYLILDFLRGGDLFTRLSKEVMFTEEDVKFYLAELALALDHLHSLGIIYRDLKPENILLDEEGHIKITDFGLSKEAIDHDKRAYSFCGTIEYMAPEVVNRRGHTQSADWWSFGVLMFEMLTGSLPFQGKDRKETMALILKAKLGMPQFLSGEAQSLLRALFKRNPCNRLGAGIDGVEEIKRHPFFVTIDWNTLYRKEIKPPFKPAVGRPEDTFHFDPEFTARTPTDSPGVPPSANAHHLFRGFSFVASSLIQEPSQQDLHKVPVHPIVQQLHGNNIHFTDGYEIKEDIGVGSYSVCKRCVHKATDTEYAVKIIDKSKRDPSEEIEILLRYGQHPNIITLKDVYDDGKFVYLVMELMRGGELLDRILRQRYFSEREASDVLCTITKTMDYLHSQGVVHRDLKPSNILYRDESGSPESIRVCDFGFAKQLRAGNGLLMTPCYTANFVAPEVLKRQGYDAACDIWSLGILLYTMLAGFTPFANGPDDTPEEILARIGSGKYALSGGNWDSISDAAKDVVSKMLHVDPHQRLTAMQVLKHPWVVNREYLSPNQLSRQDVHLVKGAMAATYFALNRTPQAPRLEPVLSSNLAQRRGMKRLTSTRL

KinomeScan kinase panel [8] = target: T8, KinomeScan kinase panel (Homo sapiens, UniProt Q02763); details: read-out: score (%)
T8 construct: purchased DiscoveRx (KinomeScan)
T8 sequence (Q02763 23-1124): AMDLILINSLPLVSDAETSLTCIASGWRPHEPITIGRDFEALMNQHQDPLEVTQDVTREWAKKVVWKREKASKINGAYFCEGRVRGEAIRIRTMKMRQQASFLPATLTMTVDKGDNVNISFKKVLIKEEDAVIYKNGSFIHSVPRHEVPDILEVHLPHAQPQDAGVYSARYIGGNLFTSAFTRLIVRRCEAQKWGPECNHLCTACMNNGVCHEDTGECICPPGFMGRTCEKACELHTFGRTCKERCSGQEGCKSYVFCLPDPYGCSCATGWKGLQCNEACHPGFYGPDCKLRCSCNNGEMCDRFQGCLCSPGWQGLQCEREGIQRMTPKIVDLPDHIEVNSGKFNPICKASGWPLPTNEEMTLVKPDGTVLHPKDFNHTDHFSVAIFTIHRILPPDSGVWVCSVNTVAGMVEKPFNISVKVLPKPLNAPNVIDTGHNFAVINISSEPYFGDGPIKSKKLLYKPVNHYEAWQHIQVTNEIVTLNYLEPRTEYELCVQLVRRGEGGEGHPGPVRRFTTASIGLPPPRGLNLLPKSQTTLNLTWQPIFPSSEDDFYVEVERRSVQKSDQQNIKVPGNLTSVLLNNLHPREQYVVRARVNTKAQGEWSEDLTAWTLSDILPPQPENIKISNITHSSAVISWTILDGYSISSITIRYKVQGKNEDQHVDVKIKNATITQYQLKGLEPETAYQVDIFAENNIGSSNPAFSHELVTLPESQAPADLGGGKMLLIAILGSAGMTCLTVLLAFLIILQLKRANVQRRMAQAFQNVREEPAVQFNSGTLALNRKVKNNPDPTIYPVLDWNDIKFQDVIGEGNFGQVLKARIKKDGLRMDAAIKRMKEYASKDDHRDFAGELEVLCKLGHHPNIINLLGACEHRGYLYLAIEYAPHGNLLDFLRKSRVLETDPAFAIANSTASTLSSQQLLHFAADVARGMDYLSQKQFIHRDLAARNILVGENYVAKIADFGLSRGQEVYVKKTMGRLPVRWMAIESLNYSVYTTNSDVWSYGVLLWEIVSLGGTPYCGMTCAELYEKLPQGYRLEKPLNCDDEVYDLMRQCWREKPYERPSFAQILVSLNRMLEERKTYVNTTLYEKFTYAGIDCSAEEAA

KinomeScan kinase panel [9] = target: T9, KinomeScan kinase panel (Homo sapiens, UniProt P08631); details: HCK, 10 µM; read-out: score (%)
T9 construct: purchased DiscoveRx (KinomeScan)
T9 sequence (P08631 whole entry): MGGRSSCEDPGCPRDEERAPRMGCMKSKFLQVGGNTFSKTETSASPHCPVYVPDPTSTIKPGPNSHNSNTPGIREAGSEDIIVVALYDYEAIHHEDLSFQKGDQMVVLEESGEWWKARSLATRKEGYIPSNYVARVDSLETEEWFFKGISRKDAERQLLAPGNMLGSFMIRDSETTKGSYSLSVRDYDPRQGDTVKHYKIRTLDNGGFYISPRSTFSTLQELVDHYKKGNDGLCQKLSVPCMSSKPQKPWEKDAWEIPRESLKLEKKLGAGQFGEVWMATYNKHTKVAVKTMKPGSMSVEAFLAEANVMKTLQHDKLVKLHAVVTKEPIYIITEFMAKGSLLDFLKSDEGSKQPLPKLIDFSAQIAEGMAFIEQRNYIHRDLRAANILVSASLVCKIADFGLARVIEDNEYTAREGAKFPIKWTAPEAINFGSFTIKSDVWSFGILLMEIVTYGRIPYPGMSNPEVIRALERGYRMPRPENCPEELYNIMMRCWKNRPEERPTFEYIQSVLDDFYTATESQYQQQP

KinomeScan kinase panel [10] = target: T10, KinomeScan kinase panel (Homo sapiens, UniProt P51955); details: NEK2, 10 µM; read-out: score (%)
T10 construct: purchased DiscoveRx (KinomeScan)
T10 sequence (P51955 1-445): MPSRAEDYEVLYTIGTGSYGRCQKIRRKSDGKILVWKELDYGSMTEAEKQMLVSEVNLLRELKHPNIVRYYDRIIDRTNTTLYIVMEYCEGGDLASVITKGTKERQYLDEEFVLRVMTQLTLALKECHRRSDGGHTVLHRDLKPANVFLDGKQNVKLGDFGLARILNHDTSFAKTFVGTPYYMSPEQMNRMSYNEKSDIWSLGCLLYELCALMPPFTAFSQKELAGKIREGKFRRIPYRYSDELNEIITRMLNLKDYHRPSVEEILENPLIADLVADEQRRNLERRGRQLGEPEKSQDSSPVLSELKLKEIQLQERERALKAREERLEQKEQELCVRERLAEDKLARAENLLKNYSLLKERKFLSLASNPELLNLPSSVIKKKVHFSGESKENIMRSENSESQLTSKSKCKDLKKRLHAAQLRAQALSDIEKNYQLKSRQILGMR

KinomeScan kinase panel [11] = target: T11, KinomeScan kinase panel (Homo sapiens, UniProt P08581); details: MET, 10 µM
T11 construct: purchased DiscoveRx (KinomeScan)

KinomeScan kinase panel [12] = target: T12, KinomeScan kinase panel (Homo sapiens, UniProt O94768); details: DRAK2, 10 µM; read-out: score (%)
T12 construct: purchased DiscoveRx (KinomeScan)
T12 sequence (O94768 1-372): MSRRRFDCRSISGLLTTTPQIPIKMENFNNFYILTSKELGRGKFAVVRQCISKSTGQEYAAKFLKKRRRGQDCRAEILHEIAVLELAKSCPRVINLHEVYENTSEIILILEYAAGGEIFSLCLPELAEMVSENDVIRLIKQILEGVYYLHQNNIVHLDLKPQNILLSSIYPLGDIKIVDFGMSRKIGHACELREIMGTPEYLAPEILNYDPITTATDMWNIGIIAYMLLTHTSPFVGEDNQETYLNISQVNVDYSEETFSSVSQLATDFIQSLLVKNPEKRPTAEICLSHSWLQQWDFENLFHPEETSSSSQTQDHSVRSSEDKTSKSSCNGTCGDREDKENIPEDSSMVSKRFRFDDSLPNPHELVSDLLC

KinomeScan kinase panel [13] = target: T13, KinomeScan kinase panel (Homo sapiens, UniProt Q9NQU5); details: PAK6, 10 µM; read-out: score (%)
T13 construct: purchased DiscoveRx (KinomeScan)
T13 sequence (Q9NQU5 whole entry): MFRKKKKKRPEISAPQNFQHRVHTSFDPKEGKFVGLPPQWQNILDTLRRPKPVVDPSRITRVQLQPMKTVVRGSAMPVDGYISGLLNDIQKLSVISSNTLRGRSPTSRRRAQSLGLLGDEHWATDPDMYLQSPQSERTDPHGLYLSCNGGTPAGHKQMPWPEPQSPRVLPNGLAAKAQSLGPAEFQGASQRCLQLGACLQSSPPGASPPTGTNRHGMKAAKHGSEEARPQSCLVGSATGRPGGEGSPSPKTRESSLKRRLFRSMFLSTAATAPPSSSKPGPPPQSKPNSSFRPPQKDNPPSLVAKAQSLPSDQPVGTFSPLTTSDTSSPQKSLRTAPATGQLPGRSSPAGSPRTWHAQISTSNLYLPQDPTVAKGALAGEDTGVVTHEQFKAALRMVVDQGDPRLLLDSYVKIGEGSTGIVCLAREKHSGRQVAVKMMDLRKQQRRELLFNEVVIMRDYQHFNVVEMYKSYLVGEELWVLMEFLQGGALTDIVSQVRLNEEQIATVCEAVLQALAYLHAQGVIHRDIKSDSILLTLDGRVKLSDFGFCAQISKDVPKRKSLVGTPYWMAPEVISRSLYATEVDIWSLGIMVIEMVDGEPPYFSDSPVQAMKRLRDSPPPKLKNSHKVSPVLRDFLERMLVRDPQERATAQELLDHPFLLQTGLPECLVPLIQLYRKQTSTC

Compound | remaining binding at 10 µM (KinomeScan kinase panel [1]; kinase TSSK1B, 10 µM) [%] | remaining binding at 10 µM (KinomeScan kinase panel [2]; kinase TLK1, 10 µM) [%] | remaining binding at 10 µM (KinomeScan kinase panel [3]; kinase TIE1, 10 µM) [%] | remaining binding at 10 µM (KinomeScan kinase panel [5]) [%] | remaining binding at 10 µM (KinomeScan kinase panel [6]) [%] | remaining binding at 10 µM (KinomeScan kinase panel [8]; kinase TIE2, 10 µM) [%] | remaining binding at 10 µM (KinomeScan kinase panel [9]) [%] | remaining binding at 10 µM (KinomeScan kinase panel [10]) [%] | score (%) (KinomeScan kinase panel [11]) | remaining binding at 10 µM (KinomeScan kinase panel [12]) [%] | remaining binding at 10 µM (KinomeScan kinase panel [13]) [%] | other results
CCN1CCN(Cc2ccc(NC(=O)c3ccc(C)c(NC(=O)c4cncc(-c5cccs5)c4)c3)cc2C(F)(F)F)CC1 [ALW-II-41-27] | > 30 | > 30 | 1.4 | > 30 | > 30 | 0.45 | 0.2 | > 30 | nb (Hits values higher than 30% were considered negative (no binding: nb)) | 31 | > 30 | remaining binding at 10 µM (KinomeScan kinase panel [4]): 0%; remaining binding at 10 µM (KinomeScan kinase panel [7]; kinase RPS6KA2(Kin.Dom.1-N-terminal)): > 30%; remaining binding at 10 µM (KinomeScan kinase panel [7]; kinase RPS6KA2(Kin.Dom.2-C-terminal)): > 30%
CCN1CCN(Cc2ccc(NC(=O)c3ccc(C)c(/C=C/c4cnc5[nH]ccc5c4Cl)c3)cc2C(F)(F)F)CC1 [HG-6-63-01, (E)-3-(2-(4-chloro-1H-pyrrolo[2,3-b]pyridin-5-yl)vinyl)-N-(4-((4-ethylpiperazin-1-yl)methyl)-3-(trifluoromethyl)phenyl)-4-methylbenzamide] | – | – | – | > 30 | > 30 | – | 0.3 | > 30 | nb (Hits values higher than 30% were considered negative (no binding: nb)) | 1.6 | > 30 | remaining binding at 10 µM (KinomeScan kinase panel [1]; TSSK1, 10 µM): > 30%; remaining binding at 10 µM (KinomeScan kinase panel [2]; TLK1, 10 µM): > 30%; remaining binding at 10 µM (KinomeScan kinase panel [3]; TIE1, 10 µM): 1.2%; remaining binding at 10 µM (KinomeScan kinase panel [4]; RET(M918T), 10 µM): 0%; remaining binding at 10 µM (KinomeScan kinase panel [7]; RPS6KA2(Kin.Dom.1)): 7.4%; remaining binding at 10 µM (KinomeScan kinase panel [7]; RPS6KA2(Kin.Dom.2)): > 30%; remaining binding at 10 µM (KinomeScan kinase panel [8]; TIE2, 10 µM): 0.1%
CCN1CCN(Cc2ccc(NC(=O)c3ccc(C)c(C#Cc4cccnc4)c3)cc2C(F)(F)F)CC1 [XMD15-44] | 92 | 93 | 1.6 | > 30 | > 30 | 0.05 | 0.05 | > 30 | nb (Hits values higher than 30% were considered negative (no binding: nb)) | > 30 | 100 | remaining binding at 10 µM (KinomeScan kinase panel [4]; kinase RET(M918T), 10 µM): 0%; remaining binding at 10 µM (KinomeScan kinase panel [7]; kinase RSK3(Kin.Dom.1-N-terminal)): 9.5%; remaining binding at 10 µM (KinomeScan kinase panel [7]; kinase RSK3(Kin.Dom.2-C-terminal)): 30%
